# Measured values reported in paper PMC8666671, “Fine-tuning spermidine binding modes in the putrescine binding protein PotF” (The Journal of Biological Chemistry, 2021).
# Positions count from the first letter of the chain named. Where “and” joins values, the source holds several entries; their conditions need not be identical. Equal values may be shown once.
# Columns and labels:
# Format in all cases: binding
# Conditions in all cases: 293 K
# PotF/D–S247D = molecular target: T1, PotF/D–S247D (Escherichia coli, UniProt P31133, A182D/D39E/F276W/L348Q/S38T/S87Y); experiment: ITC, PotF/D–S247D
# T1 construct: without the N-terminal signal peptide; made in house; host or cells: E. coli BL21 (DE3)
# T1 sequence (P31133 27-370 S38T/D39E/S87Y/A182D/F276W/L348Q): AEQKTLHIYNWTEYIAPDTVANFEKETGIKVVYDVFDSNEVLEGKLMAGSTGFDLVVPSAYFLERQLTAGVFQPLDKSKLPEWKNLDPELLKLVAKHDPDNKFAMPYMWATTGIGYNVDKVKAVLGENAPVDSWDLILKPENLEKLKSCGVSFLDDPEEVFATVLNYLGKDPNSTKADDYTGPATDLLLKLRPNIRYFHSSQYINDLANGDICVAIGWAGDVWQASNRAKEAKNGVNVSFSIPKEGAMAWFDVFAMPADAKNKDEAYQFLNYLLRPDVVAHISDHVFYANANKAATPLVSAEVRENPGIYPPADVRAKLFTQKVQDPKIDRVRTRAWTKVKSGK
# Method: (§1) Ligands were always freshly prepared in the exact same buffer as was used for the size exclusion run. Samples were degassed, and temperature was equilibrated using a degassing station (TA Instruments). About 400 μl protein sample of different concentrations (Table S5) depending on affinity was transferred into the sample cell of a nanoITC (TA Instruments), and 50 μl of about tenfold concentrated ligand solution was loaded into the injection needle. Multiple injection measurements were carried out at 293 K, 300 rpm stirring rate, and 250 s spacings between each 2 μl injection. The heat quantity past injection was determined by integration of the measured peaks. Every protein–ligand combination was measured as biological triplicate. Subtraction of heat of dilution measurements, peak integration, and one site binding fits were done with NanoAnalyze (TA Instruments). Reported errors are the errors between fits of the measured triplicates.
# PotF/D–E39D–F88A = molecular target: T2, PotF/D–E39D–F88A (Escherichia coli, UniProt P31133, A182D/D247S/F276W/F88A/L348Q/S38T/S87Y); experiment: ITC, PotF/D–E39D–F88A
# T2 construct: without the N-terminal signal peptide; made in house; host or cells: E. coli BL21 (DE3)
# T2 sequence (P31133 27-370 S38T/S87Y/F88A/A182D/D247S/F276W/L348Q): T1 sequence (P31133 27-370 S38T/D39E/S87Y/A182D/F276W/L348Q) with E13D, F62A, D221S
# Method: as §1
# PotF/D–E39D–Y87S = molecular target: T3, PotF/D–E39D–Y87S (Escherichia coli, UniProt P31133, A182D/D247S/F276W/L348Q/S38T); experiment: ITC, PotF/D–E39D–Y87S
# T3 construct: without the N-terminal signal peptide; made in house; host or cells: E. coli BL21 (DE3)
# T3 sequence (P31133 27-370 S38T/A182D/D247S/F276W/L348Q): T1 sequence (P31133 27-370 S38T/D39E/S87Y/A182D/F276W/L348Q) with E13D, Y61S, D221S
# Method: as §1
# PotF/D–E39D–Y87S–F88Y = molecular target: T4, PotF/D–E39D–Y87S–F88Y (Escherichia coli, UniProt P31133, A182D/D247S/F276W/F88Y/L348Q/S38T); experiment: ITC, PotF/D–E39D–Y87S–F88Y
# T4 construct: without the N-terminal signal peptide; made in house; host or cells: E. coli BL21 (DE3)
# T4 sequence (P31133 27-370 S38T/F88Y/A182D/D247S/F276W/L348Q): T1 sequence (P31133 27-370 S38T/D39E/S87Y/A182D/F276W/L348Q) with E13D, Y61S, F62Y, D221S
# Method: as §1
# PotF/D–E39D–F88L = molecular target: T5, PotF/D–E39D–F88L (Escherichia coli, UniProt P31133, A182D/D247S/F276W/F88L/L348Q/S38T/S87Y); experiment: ITC, PotF/D–E39D–F88L
# T5 construct: without the N-terminal signal peptide; made in house; host or cells: E. coli BL21 (DE3)
# T5 sequence (P31133 27-370 S38T/S87Y/F88L/A182D/D247S/F276W/L348Q): T1 sequence (P31133 27-370 S38T/D39E/S87Y/A182D/F276W/L348Q) with E13D, F62L, D221S
# Method: as §1
# [1] = ITC, 50 mM Tris pH 8, 300 mM NaCl, biological triplicates
smiles,measurement,setting,value
"NCCCCNCCCN [SPD, spermidine]",n,PotF/D–S247D; ITC binding stoichiometry,0.94 ± 0.01
same,ΔG,PotF/D–S247D; ITC,-6.77 ± 0.18 kcal/mol
same,ΔH,PotF/D–S247D; ITC,-6.76 ± 0.08 kcal/mol
same,−TΔS,PotF/D–S247D; ITC,-0.01 ± 0.25 kcal/mol
same,Kd,PotF/D–S247D; [1],~9.4 µM and 9.4 µM and 9.43 µM
same,n,PotF/D–E39D–F88A; ITC binding stoichiometry,0.98 ± 0.03
same,ΔG,PotF/D–E39D–F88A; ITC,-6.73 ± 0.03 kcal/mol
same,ΔH,PotF/D–E39D–F88A; ITC,-12.22 ± 0.35 kcal/mol
same,−TΔS,PotF/D–E39D–F88A; ITC,5.49 ± 0.36 kcal/mol
same,Kd,PotF/D–E39D–F88A; [1],9.6 ± 0.54 µM
same,n,PotF/D–E39D–Y87S; ITC binding stoichiometry,0.98 ± 0.01
same,ΔG,PotF/D–E39D–Y87S; ITC,-6.74 ± 0.06 kcal/mol
same,ΔH,PotF/D–E39D–Y87S; ITC,-6.56 ± 0.13 kcal/mol
same,−TΔS,PotF/D–E39D–Y87S; ITC,-0.18 ± 0.19 kcal/mol
same,Kd,PotF/D–E39D–Y87S; [1],9.4 µM and 9.44 µM
same,n,PotF/D–E39D–Y87S–F88Y; ITC binding stoichiometry,0.99 ± 0.02
same,ΔG,PotF/D–E39D–Y87S–F88Y; ITC,-7.09 ± 0.15 kcal/mol
same,ΔH,PotF/D–E39D–Y87S–F88Y; ITC,-7.81 ± 0.21 kcal/mol
same,−TΔS,PotF/D–E39D–Y87S–F88Y; ITC,0.71 ± 0.32 kcal/mol
same,Kd,PotF/D–E39D–Y87S–F88Y; [1],~5.3 µM and 5.3 µM and 5.32 µM
same,n,PotF/D–E39D–F88L; ITC binding stoichiometry,1.03 ± 0.01
same,ΔG,PotF/D–E39D–F88L; ITC,-6.71 ± 0.03 kcal/mol
same,ΔH,PotF/D–E39D–F88L; ITC,-12.31 ± 0.11 kcal/mol
same,−TΔS,PotF/D–E39D–F88L; ITC,5.60 ± 0.13 kcal/mol
same,Kd,PotF/D–E39D–F88L; [1],~9.9 µM and 9.9 µM
